Measurements: US12337024B2, “Larazotide formulations” (Interlude Biopharma Co., priority 2019, dated 2025)
Where two headings read alike, the source gives them in different places. Ends that are not written are not given here.

How the values were obtained:
mice on the Western diet = test system: mice on the Western diet
Experimental: 77 DIAMOND™ mice were placed on either normal chow (NDNW) or Western Diet (WDSW) and aged up to 8, 20, 28, 36, and 40 weeks, then dosed with 4 kDa FITC-dextran at 600 mg/kg body weight by gavage. Four hours after the dosing, at least 20 μL of serum was taken by tail vein nick. A competition ELISA, which measures small dextran polymers (conjugated or unconjugated), was used to quantify serum dextran concentration.
The subsequent experiment evaluated the effects of orally administered larazotide acetate to mice on the Western diet. The study design is depicted in FIG. 2. Specifically, 8 groups of mice were placed on WDSW diets for 16 weeks and administered larazotide (dosed in drinking water or oral gavage), pioglitazone comparator, or vehicle from 8-16 weeks. Improvement in leaky gut was assessed by dosing the mice with unconjugated dextran at 600 mg/kg via oral gavage at baseline and end of study, serum was collected 4 hours later, and serum dextran concentrations were measured.

tight junction = assay: Activity as tight junction regulators
celiac disease symptoms = details: clinical trials, cited from earlier work

Substance: GGVLVQPG [larazotide]
- gut integrity (mice on the Western diet; mice on Western diet, larazotide from 8-16 weeks, drinking water or oral gavage, FIG. 3): improved gut integrity
- activity as tight junction regulator when mixed with fragments (tight junction; full length larazotide mixed with fragments GVLVQPG and VLVQPG): activity is completely abolished
- reduction of celiac disease symptoms (celiac disease symptoms; higher doses (e.g., 1 mg and 2 mg doses)): attenuation of activity, or no activity at all
- reduction of celiac disease symptoms (celiac disease symptoms; lower doses (e.g., 0.5 mg dose)): benefit at reducing celiac disease symptoms

Substance: GVLVQPG (Synthetic polymer) [larazotide-derived fragment missing N-terminal glycine residue]
- activity as tight junction regulators (tight junction): inactive

Substance: VLVQPG (Synthetic polymer) [larazotide-derived fragment missing N-terminal glycine residues]
- activity as tight junction regulators (tight junction): inactive

Substance: larazotide acetate
- serum dextran concentrations (mice on the Western diet; mice on Western diets, various doses, serum 4 hours after dextran 600 mg/kg gavage): successful in lowering the serum dextran concentrations
